Test results from ChEMBL document CHEMBL3861942 (Medchemcomm, 2016).
Activity calls are given as the source filed them. The rule behind the calls is not given here.

Key:
[1] = Cell cycle arrest in human A549 cells assessed as accumulation at G1 phase at 100 uM by propidium iodide staining-based flow cytometric analysis (reference value: 66.2 +/- 1.5%); format: functional
[2] = Cell cycle arrest in human HeLa cells assessed as accumulation at G2/M phase at 10 uM by propidium iodide staining-based flow cytometric analysis (reference value: 47.1 +/- 1.2%); format: functional
HeLa [3] = assay: (§1) Cytotoxicity against human HeLa cells assessed as decrease in cell viability after 24 hrs by MTT assay; format: functional, cell-based
[4] = as §1; format: functional, cell-based
[5] = Cell cycle arrest in human A549 cells assessed as accumulation at S phase at 10 uM by propidium iodide staining-based flow cytometric analysis (reference value: 8.9 +/- 0.6%); format: functional
[6] = Cell cycle arrest in human HeLa cells assessed as accumulation at G1 phase at 10 uM by propidium iodide staining-based flow cytometric analysis (reference value: 42 +/- 1.8%); format: functional
A549 [7] = assay: Induction of apoptosis in human A549 cells assessed as appearance of crescent or granular shape nucleus on one side of the cell at 10 to 100 uM after 24 hrs by acridine orange/ethidium bromide staining-based fluorescence microscopy; format: functional
[8] = Cell cycle arrest in human HeLa cells assessed as accumulation at G1 phase at 100 uM by propidium iodide staining-based flow cytometric analysis (reference value: 42 +/- 1.8%); format: functional
[9] = Cell cycle arrest in human HeLa cells assessed as accumulation at S phase at 100 uM by propidium iodide staining-based flow cytometric analysis (reference value: 6.7 +/- 0.3%); format: functional
[10] = Cell cycle arrest in human HeLa cells assessed as accumulation at sub G0 phase at 100 uM by propidium iodide staining-based flow cytometric analysis (reference value: 1.05 +/- 0.2%); format: functional
[11] = Cell cycle arrest in human A549 cells assessed as accumulation at sub G0 phase at 10 uM by propidium iodide staining-based flow cytometric analysis (reference value: 0.866 +/- 0.03%); format: functional
[12] = Cell cycle arrest in human A549 cells assessed as accumulation at G2/M phase at 100 uM by propidium iodide staining-based flow cytometric analysis (reference value: 23.5 +/- 1%); format: functional
[13] = Cell cycle arrest in human HeLa cells assessed as accumulation at G2/M phase at 100 uM by propidium iodide staining-based flow cytometric analysis (reference value: 47.1 +/- 1.2%); format: functional
[14] = Cell cycle arrest in human A549 cells assessed as accumulation at G1 phase at 10 uM by propidium iodide staining-based flow cytometric analysis (reference value: 66.2 +/- 1.5%); format: functional
A549 [15] = assay: Induction of apoptosis in human A549 cells assessed as appearance of concentrated and asymmetrically localized nucleus at 10 to 100 uM after 24 hrs by acridine orange/ethidium bromide staining-based fluorescence microscopy; format: functional, cell-based
A549 [16] = assay: (§2) Cytotoxicity against human A549 cells assessed as decrease in cell viability after 24 hrs by MTT assay; format: functional, cell-based
[17] = as §2; format: functional, cell-based; settings: A549, 24 h
[18] = Cell cycle arrest in human A549 cells assessed as accumulation at sub G0 phase at 100 uM by propidium iodide staining-based flow cytometric analysis (reference value: 0.866 +/- 0.03%); format: functional
[19] = Cell cycle arrest in human A549 cells assessed as accumulation at G2/M phase at 10 uM by propidium iodide staining-based flow cytometric analysis (reference value: 23.5 +/- 1%); format: functional
[20] = Cell cycle arrest in human HeLa cells assessed as accumulation at S phase at 10 uM by propidium iodide staining-based flow cytometric analysis (reference value: 6.7 +/- 0.3%); format: functional
[21] = Cell cycle arrest in human HeLa cells assessed as accumulation at sub G0 phase at 10 uM by propidium iodide staining-based flow cytometric analysis (reference value: 1.05 +/- 0.2%); format: functional
HeLa [22] = assay: Induction of apoptosis in human HeLa cells assessed as appearance of concentrated and asymmetrically localized nucleus at 10 to 100 uM after 24 hrs by acridine orange/ethidium bromide staining-based fluorescence microscopy; format: functional, cell-based
[23] = Cell cycle arrest in human A549 cells assessed as accumulation at S phase at 100 uM by propidium iodide staining-based flow cytometric analysis (reference value: 8.9 +/- 0.6%); format: functional

SMILES	Activity [1] [%]	Activity [2] [%]	Activity (HeLa [3])	IC50 [4] [µM]	Activity [5] [%]	Activity [6] [%]	Activity (A549 [7])	Activity [8] [%]	Activity [9] [%]	Activity [10] [%]	Activity [11] [%]	Activity [12] [%]	Activity [13] [%]	Activity [14] [%]	Activity (A549 [15])	Activity (A549 [16])	IC50 [17] [µM]	Activity [18] [%]	Activity [19] [%]	Activity [20] [%]	further results
O=C(O)/C=C/c1ccccc1 [CINNAMIC ACID]	65.6	7.1	Dose-dependent effect	24.8	8.3	55.6	Active	73.3	14	14.4	0.54	24.8	0.5	62.7	Active	Dose-dependent effect	50.2	0.48	26.9	28.6	Activity [21]: 5.8%; Activity (HeLa [22]): Active; Activity [23]: 8.1%
CC[C@H](/C=C/[C@@H](C)[C@H]1CC[C@H]2[C@@H]3CC=C4C[C@@H](O)CC[C@]4(C)[C@H]3CC[C@]12C)C(C)C [STIGMASTEROL]	64.9	48.7	Dose-dependent effect	12.2	9.6	39	Active	38	7.1	1.41	0.85	24.1	48.9	62.5	Active	Dose-dependent effect	10.4	0.9	26.5	6.4	Activity [21]: 0.94%; Activity (HeLa [22]): Active; Activity [23]: 9.3%
CC[C@]1(O)C[C@H]2CN(CCc3c([nH]c4ccccc34)[C@@](C(=O)OC)(c3cc4c(cc3OC)N(C=O)[C@H]3[C@@](O)(C(=O)OC)[C@H](OC(C)=O)[C@]5(CC)C=CCN6CC[C@]43[C@@H]65)C2)C1 [VINCRISTINE]				4.1													0.8				
